In patent US11760752B2, “Carboxylic acid, acyl sulfonamide and acyl sulfamide-derivatized bicyclic aza-heteroaromatics as selective Mcl-1 inhibitors and as dual Mcl-1/Bcl-2 inhibitors” (University of Maryland, Baltimore, priority 2019, dated 2023):
Like-named read-outs stand apart in the source and are kept apart here.

How the values were obtained:
BCL-XL [1] = target: T1, BCL-XL (Homo sapiens (Human), UniProt Q07817); experiment: Fluorescence polarization competition assay (FPCA), displacement of FITC-Bak from BCL-XL; assay type: binding
Method: (§1) These values were determined from a fluorescence polarization competition assay involving a fluorescently labeled peptide (BAK) bound to the desired Bcl-2 anti-apoptotic protein. […] These inhibition constants are the concentrations at which the indazole derivatives can displace 50% of BAK from the indicated Bcl-2 anti-apoptotic proteins.
(§2) The concentrated peptide stocks were prepared in DMSO and the concentration of the peptide was determined in water at pH 8.0 using the extinction coefficient for amide-linked FITC of λ494=68,000 cm^−1M^−1.
(§3) The fluorescence polarization assays were performed in 96 well polypropylene F-bottom black microplates (Greiner Bio-One) with a final volume of 100 μL.
(§4) The fluorescence polarization competition assays were setup using a Biomek FXP Automated Liquid Handling System. […] The IC50 values were then converted to Ki values using an equation derived by Nikolovska-Coleska et al. All inhibitors were tested in triplicate.
Target sequence in this assay (Q07817 1-212): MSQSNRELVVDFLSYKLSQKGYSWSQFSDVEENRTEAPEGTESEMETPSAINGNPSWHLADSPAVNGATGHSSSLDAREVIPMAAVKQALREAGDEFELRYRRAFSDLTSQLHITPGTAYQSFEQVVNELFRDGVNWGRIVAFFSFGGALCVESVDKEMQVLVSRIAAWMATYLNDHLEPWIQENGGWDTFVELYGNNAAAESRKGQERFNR

BCL-2 = BCL-2 (Homo sapiens (Human), UniProt P10415); experiment: Fluorescence polarization competition assay (FPCA), displacement of FITC-Bak from BCL-2; assay type: binding
Method: as §1, §2, §3, §4

MCL-1 = MCL-1 (Homo sapiens (Human), UniProt Q07820); experiment: Fluorescence polarization competition assay (FPCA), displacement of FITC-Bak from MCL-1; assay type: binding
BCL-XL [2] = target: T1, BCL-XL; conditions: relative to BCL-2; cited from earlier work
Target sequence in this assay (Q07817 whole entry, species assumed): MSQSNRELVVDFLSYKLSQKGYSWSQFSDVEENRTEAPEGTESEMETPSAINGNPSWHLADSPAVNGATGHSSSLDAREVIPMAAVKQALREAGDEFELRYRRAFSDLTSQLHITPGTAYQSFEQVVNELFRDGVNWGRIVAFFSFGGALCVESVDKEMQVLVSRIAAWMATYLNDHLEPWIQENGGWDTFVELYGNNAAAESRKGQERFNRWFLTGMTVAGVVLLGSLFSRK

[3] = Table 3, FITC-Bak peptide displacement, read-out: MCL-1 Affinity Ki
[4] = Table 3, FITC-Bak peptide displacement, read-out: BCL-XL Affinity Ki
[5] = Table 3, FITC-Bak peptide displacement, read-out: BCL-2 Affinity Ki
[6] = Table 5, heterocyclic core SAR, read-out: MCL-1 Ki
[7] = Table 8, N-1-alkylated isomers, read-out: BCL-2 Ki

Sequence of MCL-1 (Q07820 172-327): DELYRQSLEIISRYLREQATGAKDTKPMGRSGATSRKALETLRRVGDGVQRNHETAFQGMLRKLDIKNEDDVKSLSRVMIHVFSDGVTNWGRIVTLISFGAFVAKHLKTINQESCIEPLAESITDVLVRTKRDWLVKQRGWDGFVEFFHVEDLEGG
Sequence of BCL-2 (P10415 1-211): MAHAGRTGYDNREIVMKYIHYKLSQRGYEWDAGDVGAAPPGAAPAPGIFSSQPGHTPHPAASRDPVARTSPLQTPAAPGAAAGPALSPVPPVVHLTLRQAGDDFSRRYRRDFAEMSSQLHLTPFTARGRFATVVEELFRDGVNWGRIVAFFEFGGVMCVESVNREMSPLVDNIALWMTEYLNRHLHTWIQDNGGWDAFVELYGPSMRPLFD

SMILES | Ki (MCL-1; [3]) | Ki (BCL-XL [1]; [4]) | Ki (BCL-2; [5]) | also measured
Cc1cc(OCCCc2c(C(=O)O)n(C)c3cc(Cl)ccc23)cc(C)c1Cl | – | – | – | Ki (BCL-XL [1]; Table 4, FPCA data for control compounds, read-out: BCL-XL Ki): 1.2 ± 0.16 µM; Ki (BCL-2; Table 4, FPCA data for control compounds, read-out: BCL-2 Ki): > 10 µM
Cc1cc(OCCCn2nc(C(=O)O)c3cc(Cl)ccc32)cc(C)c1Cl [BD-3-173] | 5.8 ± 0.36 µM | – | – | Ki (BCL-2; read-out: BCL-2 Affinity Ki): 5.79 ± 0.62 µM
Cc1cc(OCCCn2nc(C(=O)NS(=O)(=O)c3ccc(NCc4ccco4)c([N+](=O)[O-])c3)c3cc(Cl)ccc32)cc(C)c1Cl [BD-3-180] | 0.48 ± 0.03 µM | 0.597 ± 0.18 µM | 0.572 ± 0.05 µM | –
Cc1cc(OCCCn2nc(C(=O)NS(=O)(=O)c3ccc(NCc4cccnc4)c([N+](=O)[O-])c3)c3cc(Cl)ccc32)cc(C)c1Cl [BD-3-181] | 0.84 ± 0.05 µM | 0.574 ± 0.11 µM | 0.694 ± 0.09 µM | –
Cc1cc(OCCCn2nc(C(=O)NS(=O)(=O)c3ccc(N4CCOCC4)c([N+](=O)[O-])c3)c3cc(Cl)ccc32)cc(C)c1Cl [BD-3-183] | 0.92 ± 0.03 µM | 1.06 ± 0.34 µM | 0.868 ± 0.13 µM | –
Cc1cc(OCCCn2nc(C(=O)NS(=O)(=O)c3ccc(NCC4CCCO4)c([N+](=O)[O-])c3)c3cc(Cl)ccc32)cc(C)c1Cl (stereo not drawn) [BD-3-184] | 0.69 ± 0.03 µM | 0.84 ± 0.14 µM | 1.17 ± 0.16 µM | –
Cc1cc(OCCCn2nc(C(=O)NS(=O)(=O)c3ccc(NCC4CCN(C)CC4)c([N+](=O)[O-])c3)c3cc(Cl)ccc32)cc(C)c1Cl [BD-3-190] | – | – | – | Ki (BCL-2; read-out: BCL-2 Affinity Ki): 8.93 ± 0.29 µM
Cc1cc(Oc2ccc(Cn3nc(C(=O)NS(=O)(=O)c4ccc([N+](=O)[O-])c(N5CCOCC5)c4)c4cc(Cl)ccc43)cc2)cc(C)c1Cl [CG-1-016] | 0.37 ± 0.02 µM | 0.436 ± 0.07 µM | 0.451 ± 0.04 µM | –
Cc1cc(Oc2ccc(Cn3nc(C(=O)NS(=O)(=O)c4ccc([N+](=O)[O-])c(NCc5cccnc5)c4)c4cc(Cl)ccc43)cc2)cc(C)c1Cl [CG-1-018] | 0.48 ± 0.03 µM | 0.436 ± 0.07 µM | 0.384 ± 0.03 µM | –
Cc1cc(Oc2ccc(Cn3nc(C(=O)NS(=O)(=O)c4ccc([N+](=O)[O-])c(NCc5ccco5)c4)c4cc(Cl)ccc43)cc2)cc(C)c1Cl [CG-1-019] | 1.14 ± 0.05 µM | 0.325 ± 0.05 µM | 0.384 ± 0.03 µM | –
CCN1CCN(c2cc(S(=O)(=O)NC(=O)c3nn(Cc4ccc(Oc5cc(C)c(Cl)c(C)c5)cc4)c4ccc(Cl)cc34)ccc2[N+](=O)[O-])CC1 [CG-1-023] | 12.4 ± 0.37 µM | – | – | Ki (BCL-2; read-out: BCL-2 Affinity Ki): 74.3 ± 11.5 µM
Cc1cc(Oc2ccc(Cn3nc(C(=O)O)c4cc(Cl)ccc43)cc2)cc(C)c1Cl [NB-1-070] | 0.91 ± 0.05 µM | – | – | Ki (BCL-XL [1]; read-out: BCL-XL Affinity Ki): 2.01 ± 0.35 µM; Ki (BCL-2; read-out: BCL-2 Affinity Ki): 1.04 ± 0.19 µM
Cc1cc(Oc2ccc(Cn3nc(C(=O)NS(=O)(=O)c4ccc(Cl)cc4)c4cc(Cl)ccc43)cc2)cc(C)c1Cl [NB-1-084] | 0.28 ± 0.01 µM | 0.84 ± 0.228 µM | 1.09 ± 0.45 µM | –
Cc1cc(Oc2ccc(Cn3nc(C(=O)NS(=O)(=O)c4ccc(N5CCOCC5)c([N+](=O)[O-])c4)c4cc(Cl)ccc43)cc2)cc(C)c1Cl [NB-1-086] | 0.32 ± 0.01 µM | – | – | Ki (BCL-XL [1]; read-out: BCL-XL Affinity Ki): 0.84 ± 0.228 µM; Ki (BCL-2; read-out: BCL-2 Affinity Ki): 0.569 ± 0.04 µM
Cc1cc(Oc2ccc(Cn3nc(C(=O)NS(=O)(=O)c4ccc(NCc5cccnc5)c([N+](=O)[O-])c4)c4cc(Cl)ccc43)cc2)cc(C)c1Cl [NB-1-087] | 0.52 ± 0.03 µM | – | – | Ki (BCL-XL [1]; read-out: BCL-XL Affinity Ki): 0.557 ± 0.08 µM; Ki (BCL-2; read-out: BCL-2 Affinity Ki): 0.611 ± 0.2 µM
Cc1cc(Oc2ccc(Cn3nc(C(=O)NS(=O)(=O)c4ccc(NCCN5CCOCC5)c([N+](=O)[O-])c4)c4cc(Cl)ccc43)cc2)cc(C)c1Cl [NB-1-088] | 0.75 ± 0.06 µM | – | – | Ki (BCL-2; read-out: BCL-2 Affinity Ki): 0.738 ± 0.19 µM
Cc1cc(Oc2ccc(Cn3nc(C(=O)NS(=O)(=O)c4ccc(NCc5ccco5)c([N+](=O)[O-])c4)c4cc(Cl)ccc43)cc2)cc(C)c1Cl [NB-1-089] | 0.26 ± 0.01 µM | 0.551 ± 0.07 µM | 0.266 ± 0.02 µM | –
Cc1cc(OCCCn2c(C(=O)O)nc3ccccc32)cc(C)c1Cl [compound 5, 1-(3-(4-chloro-3,5-dimethylphenoxy)propyl)-1H-benzo[d]imidazole-2-carboxylic acid] | – | – | – | Ki (MCL-1; [6]): > 10 µM; Ki (MCL-1; read-out: MCL-1 Ki): > 10 µM
Cc1cc(OCCCn2nc3ccc(Cl)cc3c2C(=O)O)cc(C)c1Cl [compound 10, 5-chloro-2-(3-(4-chloro-3,5-dimethylphenoxy)propyl)-2H-indazole-3-carboxylic acid] | – | – | – | Ki (MCL-1; [6]): > 10 µM; Ki (MCL-1; read-out: MCL-1 Ki): > 10 µM
Cc1cc(OCCn2nc3ccc(Cl)cc3c2C(=O)O)cc(C)c1Cl [compound 11, 5-chloro-2-(2-(4-chloro-3,5-dimethylphenoxy)ethyl)-2H-indazole-3-carboxylic acid] | – | – | – | Ki (MCL-1; [6]): > 10 µM; Ki (MCL-1; read-out: MCL-1 Ki): > 10 µM
Cc1cc(Oc2ccc(Cn3nc4ccc(Cl)cc4c3C(=O)O)cc2)cc(C)c1Cl [compound 12, 5-chloro-2-(4-(4-chloro-3,5-dimethylphenoxy)benzyl)-2H-indazole-3-carboxylic acid] | – | – | – | Ki (BCL-2; read-out: BCL-2 Ki): 1.45 ± 0.075 µM; Ki (MCL-1; [6]): 2.36 ± 0.29 µM; Ki (MCL-1; read-out: MCL-1 Ki): 2.36 ± 0.29 µM
Cc1cc(Oc2ccc(Cn3nc4cc(Cl)ccc4c3C(=O)O)cc2)cc(C)c1Cl [compound 49, 6-chloro-2-(4-(4-chloro-3,5-dimethylphenoxy)benzyl)-2H-indazole-3-carboxylic acid] | – | – | – | Ki (MCL-1; [6]): 1.76 ± 0.55 µM; Ki (MCL-1; read-out: MCL-1 Ki): 1.76 ± 0.55 µM
Cc1cc(Oc2ccc(Cn3nc(C(=O)O)c4cc(Cl)ccc43)cc2)cc(C)c1Cl [compound 50, 5-chloro-1-(4-(4-chloro-3,5-dimethylphenoxy)benzyl)-1H-indazole-3-carboxylic acid] | – | – | – | Ki (MCL-1; Table 8, N-1-alkylated isomers, read-out: MCL-1 Ki): 1.58 ± 0.36 µM
Cc1cc(Oc2ccc(Cn3nc(C(=O)NS(=O)(=O)c4ccc(N5CCOCC5)c([N+](=O)[O-])c4)c4cc(Cl)ccc43)cc2)cc(C)c1Cl [compound 51, 5-chloro-1-(4-(4-chloro-3,5-dimethylphenoxy)benzyl)-N-((4-morpholino-3-nitrophenyl)sulfonyl)-1H-indazole-3-carboxamide] | – | – | – | BCL-XL affinity (in words) (BCL-XL [1]): no affinity; BCL-2 binding affinity (in words) (BCL-2): within the nanomolar range; Ki (BCL-2; [7]): 0.62 ± 0.12 µM; Ki (MCL-1): 2.22 ± 0.2 µM
Cc1cc(Oc2ccc(Cn3nc(C(=O)NS(=O)(=O)c4ccc(NCc5cccnc5)c([N+](=O)[O-])c4)c4cc(Cl)ccc43)cc2)cc(C)c1Cl [compound 52, 5-chloro-1-(4-(4-chloro-3,5-dimethylphenoxy)benzyl)-N-((3-nitro-4-((pyridin-3-ylmethyl)amino)phenyl)sulfonyl)-1H-indazole-3-carboxamide] | – | – | – | BCL-XL affinity (in words) (BCL-XL [1]): no affinity; BCL-2 binding affinity (in words) (BCL-2): within the nanomolar range; Ki (BCL-2; [7]): 0.69 ± 0.11 µM; Ki (MCL-1): > 10 µM
CC1(C)CCC(CN2CCN(c3ccc(C(=O)NS(=O)(=O)c4ccc(NCC5CCOCC5)c([N+](=O)[O-])c4)c(Oc4cnc5[nH]ccc5c4)c3)CC2)=C(c2ccc(Cl)cc2)C1 [venetoclax, Venetoclax] | – | – | – | BCL-XL affinity, fold lower than BCL-2 (BCL-XL [2]): more than 100 fold
